The values below come from article PMC5045412, “Inhibition of pro-HGF activation by SRI31215, a novel approach to block oncogenic HGF/MET signaling” (Oncotarget, 2016).

The target of experiment [1] is T1, HGFA (Homo sapiens, UniProt Q04756).
T1 construct: purchased R&D Systems
T1 sequence (Q04756 373-655): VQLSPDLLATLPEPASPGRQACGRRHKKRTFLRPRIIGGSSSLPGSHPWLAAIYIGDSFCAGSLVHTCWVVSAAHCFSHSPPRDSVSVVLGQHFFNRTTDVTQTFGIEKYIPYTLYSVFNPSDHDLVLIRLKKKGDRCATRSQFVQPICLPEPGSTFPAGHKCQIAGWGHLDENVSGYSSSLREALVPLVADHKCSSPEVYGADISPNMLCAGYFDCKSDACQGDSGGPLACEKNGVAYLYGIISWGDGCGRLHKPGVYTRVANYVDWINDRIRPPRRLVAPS
Description: Protease panel, FRET peptide substrate. Format: biochemical. The protocol:
(§1) The inhibitory activity of SRI 31215 was tested in a panel of six proteases, which included matriptase, hepsin, HGFA, trypsin, thrombin and coagulation factor Xa. All six enzymes were purchased from R&D Systems. The assay buffer used was 50 mM Tris, 20 mM NaCl, 0.01% Tween 20, pH 8.0. The substrate was a custom FRET peptide based on the pro-HGF cleavage sequence (H2N-(EEdans)GKQLRVVNGG(KDabcyl)-amide) pre- pared by New England Peptide. All measurements were made using an Aminco-Bowman Series 2 Luminescence Spectrometer.

In experiment [2] the target is T2, hepsin (Homo sapiens, UniProt P05981).
T2 construct: purchased R&D Systems
The experiment is described as follows: Protease panel, FRET peptide substrate. Format: biochemical. The protocol:
as §1

Experiment [3] has as its target T3, matriptase (Homo sapiens, UniProt Q9Y5Y6).
T3 construct: purchased R&D Systems
T3 sequence (Q9Y5Y6 1-855): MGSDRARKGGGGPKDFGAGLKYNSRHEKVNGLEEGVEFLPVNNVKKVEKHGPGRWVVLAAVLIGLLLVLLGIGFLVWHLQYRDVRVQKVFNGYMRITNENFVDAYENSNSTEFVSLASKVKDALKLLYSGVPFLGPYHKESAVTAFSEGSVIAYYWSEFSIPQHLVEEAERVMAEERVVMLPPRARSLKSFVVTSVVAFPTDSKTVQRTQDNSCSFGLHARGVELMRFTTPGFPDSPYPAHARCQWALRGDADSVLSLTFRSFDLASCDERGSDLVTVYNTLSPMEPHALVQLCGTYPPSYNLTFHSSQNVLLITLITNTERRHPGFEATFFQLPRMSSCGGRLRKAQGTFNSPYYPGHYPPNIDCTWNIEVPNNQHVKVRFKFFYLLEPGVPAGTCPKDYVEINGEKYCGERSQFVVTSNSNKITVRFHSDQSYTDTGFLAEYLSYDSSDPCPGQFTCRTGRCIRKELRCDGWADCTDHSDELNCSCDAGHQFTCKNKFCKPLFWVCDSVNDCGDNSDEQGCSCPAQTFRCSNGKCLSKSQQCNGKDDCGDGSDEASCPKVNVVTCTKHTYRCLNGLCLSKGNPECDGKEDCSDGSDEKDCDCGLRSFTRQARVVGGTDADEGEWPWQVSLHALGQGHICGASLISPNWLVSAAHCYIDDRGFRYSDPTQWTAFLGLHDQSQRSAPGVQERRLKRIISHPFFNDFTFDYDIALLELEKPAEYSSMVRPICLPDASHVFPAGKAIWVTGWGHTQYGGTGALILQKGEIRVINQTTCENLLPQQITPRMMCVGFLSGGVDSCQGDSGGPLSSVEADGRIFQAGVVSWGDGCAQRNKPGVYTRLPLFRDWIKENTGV
The experiment is described as follows: Protease panel, FRET peptide substrate. Type of experiment: biochemical. Here is the method: as §1

The target of experiment [4] is T4, thrombin (Homo sapiens, UniProt P00734).
T4 construct: purchased R&D Systems
The experiment is described as follows: Protease panel, FRET peptide substrate. Type of experiment: biochemical. Here is the method:
as §1

The subject of experiment [5] is trypsin. Description: Protease panel, FRET peptide substrate. Format: biochemical. The protocol: as §1
The target in experiment [6] is T5, recombinant human HGFA (Homo sapiens, UniProt Q04756).
T5 construct: purchased R&D Systems
T5 sequence (Q04756 408-655 limits assumed): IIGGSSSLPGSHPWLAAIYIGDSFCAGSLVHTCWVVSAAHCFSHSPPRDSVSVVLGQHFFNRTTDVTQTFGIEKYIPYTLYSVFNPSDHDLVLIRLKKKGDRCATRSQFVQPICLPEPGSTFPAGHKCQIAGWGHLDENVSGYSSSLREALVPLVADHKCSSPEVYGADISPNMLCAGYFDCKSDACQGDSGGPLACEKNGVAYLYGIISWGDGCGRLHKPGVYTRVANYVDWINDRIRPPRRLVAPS
T5 sequence (Q04756 373-407 partner limits assumed): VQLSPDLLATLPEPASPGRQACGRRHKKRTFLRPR
The experiment is described as follows: Proteolytic activation of pro-HGF by HGFA (immunoblotting). Format: biochemical. To be noted: SRI 31215 10 μM, HAI-1 20 nM, HGFA 1 nM. The protocol:
Recombinant human HAI-1, recombinant human HGFA, and recombinant human HGF propeptide (pro-HGF) were purchased from R&D Systems. SRI 31215 (10 μM) or recombinant human HAI-1 (20 nM) were mixed with activated recombinant human HGFA pro-peptide (1nM) in TNC buffer (pH 8.0) and incubated at room temperature for 30 minutes. Recombinant human pro-HGF (40 ng) was added and incubated at 37°C for 1 hour. The reaction was stopped by SDS-PAGE gel sample buffer and samples were boiled and separated by 12% PAGE. Proteins were transferred onto nitrocellulose membrane, blocked with 5% milk and immunoblotted using antibodies that recognize pro-HGF as well as α and β chains of activated HGF.

Experiment [7] deals with DU145 cells. Set-up: method as in PMID 26985294. To be noted: dose-dependent; cited from earlier work.

T2 sequence (P05981 whole entry): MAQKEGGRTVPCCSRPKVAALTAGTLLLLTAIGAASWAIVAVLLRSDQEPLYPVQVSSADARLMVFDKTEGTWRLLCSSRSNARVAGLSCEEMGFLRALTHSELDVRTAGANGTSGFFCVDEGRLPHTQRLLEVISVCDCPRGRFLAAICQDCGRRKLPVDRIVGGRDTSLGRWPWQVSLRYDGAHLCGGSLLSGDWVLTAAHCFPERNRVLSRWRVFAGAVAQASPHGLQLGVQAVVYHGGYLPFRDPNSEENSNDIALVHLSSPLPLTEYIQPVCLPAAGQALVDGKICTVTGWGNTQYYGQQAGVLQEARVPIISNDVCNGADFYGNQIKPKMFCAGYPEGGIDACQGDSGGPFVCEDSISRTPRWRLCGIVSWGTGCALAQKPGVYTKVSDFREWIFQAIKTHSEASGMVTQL

Turning to `CC1CN(CC2CCN(Cc3ccccc3)CC2)C(=O)N(c2cccc(C(=N)N)c2)C1` (stereo not shown) [SRI 31215, 3-(3-((1-benzylpiperidin-4-yl)methyl)-5-methyl-2-oxotetrahydropyrimidin-1(2H)-yl)benzimidamide], the 50% inhibitory concentration (IC50) in experiment [1] was found to be 300 nM; in experiment [2], 650 nM; in experiment [3] it was 690 nM. For the same compound, the selectivity for thrombin entry in experiment [4] is listed as “acceptable”. Moreover, in experiment [5], the selectivity for trypsin entry is reported as “acceptable”. The “HGFA-induced cleavage of pro-HGF into alpha and beta chains” value in experiment [6] was “inhibited”. In addition, the “concentration at which biological activity (block of scattering) was detected” value in experiment [7] is 1 μM.
